Experimental data as given in ChEMBL document CHEMBL5154879, “Induction of Genes Implicated in Stress Response and Autophagy by a Novel Quinolin-8-yl-nicotinamide QN523 in Pancreatic Cancer” (J Med Chem, 2022).
Calls of active or inactive are those of the source. No cut-off for these calls is given here.

Tests used:
[1] = Upregulation of TXNIP gene expression in human MIA PaCa-2 cells assessed as fold change in TXNIP expression at 1 uM incubated for 24 hrs by Bru-seq analysis relative to control; format: functional
[2] = system: MIA PaCa-2; test: Induction of apoptosis in human MIA PaCa-2 cells assessed as early apoptotic cells at 0.1 uM incubated for 24 hrs by Annexin V-FITC/PI staining based flow cytometry analysis (reference value: 5.1%); format: functional
[3] = Downregulation of CXXC5 gene expression in human MIA PaCa-2 cells assessed as fold change in CXXC5 expression at 1 uM incubated for 24 hrs by Bru-seq analysis relative to control; format: functional
[4] = system: MIA PaCa-2; test: Induction of cell cycle arrest in human MIA PaCa-2 cells assessed as accumulation of cells at S phase at 0.1 uM incubated for 24 hrs by RNase/propidium iodide staining based flow cytometry analysis (Rvb =27.6 %); format: functional
[5] = system: MIA PaCa-2; test: Induction of autophagy in human MIA PaCa-2 cells assessed as accumulation of WIP11 marker gene expression at upto 2 uM incubated for 72 hrs by Western blot analysis; format: functional, cell-based
[6] = Upregulation of SAT1 gene expression in human MIA PaCa-2 cells assessed as fold change in SAT1 expression at 1 uM incubated for 24 hrs by Bru-seq analysis relative to control; format: functional
[7] = system: MIA PaCa-2; test: Upregulation of ER- related gene expression in human MIA PaCa-2 cells; format: functional, cell-based
[8] = system: MIA PaCa-2; test: Downregulation of mitotic spindle gene expression in human MIA PaCa-2 cells by gene set enrichment analysis; format: functional, cell-based
[9] = Upregulation of HERPUD1 gene expression in human MIA PaCa-2 cells assessed as fold change in HERPUD1 expression at 1 uM incubated for 24 hrs by Bru-seq analysis relative to control; format: functional
[10] = system: MIA PaCa-2; test: Upregulation of NFkappaB expression in human MIA PaCa-2 cells by gene set enrichment analysis; format: functional, cell-based
[11] = system: MIA PaCa-2; test: Downregulation of chromosomal proteins expression in human MIA PaCa-2 cells; format: functional, cell-based
[12] = system: MIA PaCa-2; test: Induction of apoptosis in human MIA PaCa-2 cells assessed as early apoptotic cells at 0.1 uM incubated for 48 hrs by Annexin V-FITC/PI staining based flow cytometry analysis (reference value: 1.8%); format: functional
[13] = system: MIA PaCa-2; test: Downregulation of G2M checkpoint gene expression in human MIA PaCa-2 cells by gene set enrichment analysis; format: functional, cell-based
[14] = system: MIA PaCa-2; test: Downregulation of cell cycle gene expression in human MIA PaCa-2 cells; format: functional, cell-based
[15] = Upregulation of DDIT3 gene expression in human MIA PaCa-2 cells assessed as fold change in DDIT3 expression at 1 uM incubated for 24 hrs by Bru-seq analysis relative to control; format: functional
[16] = Cytotoxicity against human HFF-1 cells assessed as inhibition of cell growth incubated for 72 hrs by MTT assay; format: toxicity, cell-based
[17] = system: SNU-475; test: Antiproliferative activity against human SNU-475 cells assessed as inhibition of cell growth incubated for 72 hrs by MTT assay; format: functional, cell-based; details: SNU-475, 72 h
[18] = system: MIA PaCa-2; test: Induction of apoptosis in human MIA PaCa-2 cells assessed as live cells at 0.5 uM incubated for 24 hrs by Annexin V-FITC/PI staining based flow cytometry analysis (reference value: 90.2%); format: functional
[19] = system: MIA PaCa-2; test: Upregulation of HSPA5 gene expression in human MIA PaCa-2 cells incubated for 72 hrs by Western blot analysis; format: functional, cell-based; details: DDE = dose-dependent effect
[20] = Upregulation of […] gene expression in human MIA PaCa-2 cells assessed as fold change in […] expression at 1 uM incubated for 24 hrs by Bru-seq analysis relative to control; format: functional
[21] = system: MIA PaCa-2; test: Induction of cell cycle arrest in human MIA PaCa-2 cells assessed as accumulation of cells in G0/G1 phase at 0.5 uM incubated for 48 hrs by RNase/propidium iodide staining based flow cytometry analysis (reference value: 70.4%); format: functional
[22] = Downregulation of ESPL1 gene expression in human MIA PaCa-2 cells assessed as fold change in ESPL1 expression at 1 uM incubated for 24 hrs by Bru-seq analysis relative to control; format: functional
[23] = system: HepG2; test: Antiproliferative activity against human HepG2 cells assessed as inhibition of cell growth incubated for 72 hrs by MTT assay; format: functional, cell-based; details: HepG2, 72 h
[24] = system: Hep 3B2; test: Antiproliferative activity against human Hep3B cells assessed as inhibition of cell growth incubated for 72 hrs by MTT assay; format: functional, cell-based
[25] = system: MIA PaCa-2; test: Induction of apoptosis in human MIA PaCa-2 cells assessed as late apoptotic cells at 0.1 uM incubated for 24 hrs by Annexin V-FITC/PI staining based flow cytometry analysis (reference value: 2.04%); format: functional
[26] = system: OVCAR-8; test: Antiproliferative activity against human OVCAR-8 cells assessed as inhibition of cell growth incubated for 72 hrs by MTT assay; format: functional, cell-based; details: OVCAR-8, 72 h
[27] = system: MIA PaCa-2; test: Inhibition of colony formation in human MIA PaCa-2 cells at 0.1 to 1 uM incubated for 10 to 14 days by crystal violet staining based assay; format: functional, cell-based; details: dose 0.1-1 µM, time 10-14 day
[28] = system: MIA PaCa-2; test: Upregulation of hypoxia in human MIA PaCa-2 cells by gene set enrichment analysis; format: functional, cell-based
[29] = Toxicity in NOD/SCID mouse xenografted with human MIA PaCa-2 cells assessed as weakness at 10 to 20 mg/kg, ip administered five times a week for 44 days; format: organism-based; details: in vivo, 1056 h, dose 10-20 mg/kg, time 44 day
[30] = Toxicity in NOD/SCID mouse xenografted with human MIA PaCa- 2 cells assessed as morphological changes in liver at 10 to 20 mg/kg, ip administered five times a week for 44 days by H and E staining based inverted microscopic analysis; format: organism-based; details: in vivo, 1056 h, dose 10-20 mg/kg, time 44 day
[31] = Upregulation of HSPA5 gene expression in human MIA PaCa-2 cells assessed as fold change in HSPA5 expression at 1 uM incubated for 24 hrs by Bru-seq analysis relative to control; format: functional
[32] = Downregulation of SMAD6 gene expression in human MIA PaCa-2 cells assessed as fold change in SMAD6 expression at 1 uM incubated for 24 hrs by Bru-seq analysis relative to control; format: functional
[33] = Downregulation of H2AFX gene expression in human MIA PaCa-2 cells assessed as fold change in H2AFX expression at 1 uM incubated for 24 hrs by Bru-seq analysis relative to control; format: functional
[34] = system: MIA PaCa-2; test: Induction of cell cycle arrest in human MIA PaCa-2 cells assessed as accumulation of cells in G2/M phase at 0.5 uM incubated for 48 hrs by RNase/propidium iodide staining based flow cytometry analysis (reference value: 2.71%); format: functional
[35] = system: MIA PaCa-2; test: Antitumour activity against of human MIA PaCa-2 xenografted in NOD/SCID mouse assessed as reduction in Ki67 expression in tumor by immunohistochemical assay; format: functional
[36] = system: Jurkat; test: Antiproliferative activity against human Jurkat cells assessed as inhibition of cell growth incubated for 72 hrs by MTT assay; format: functional, cell-based
[37] = Upregulation of SESN2 gene expression in human MIA PaCa-2 cells assessed as fold change in SESN2 expression at 1 uM incubated for 24 hrs by Bru-seq analysis relative to control; format: functional

O=C(Nc1cccc2cccnc12)c1cnccn1
fold change (FC) [1]: 6
Activity [2]: 10.7%
fold change (FC) [3]: 0.4
Activity [4]: 33.2%
Activity [5]: Active
fold change (FC) [6]: 7
Activity [7]: Active
Activity [8]: Active
fold change (FC) [9]: 9.8
Activity [10]: Active
Activity [11]: Active
Activity [12]: 5.5%
Activity [13]: Active
Activity [14]: Active
fold change (FC) [15]: 11
IC50 at 72 h [16]: > 30000 nM
IC50 [17]: 2670 nM
Activity [18]: 86.2%
Activity [19]: Dde
fold change (FC) [20]: 12.8
Activity [21]: 31.2%
fold change (FC) [22]: 0.4
IC50 [23]: 500 nM
IC50 [24]: 210 nM
Activity [25]: 2.3%
IC50 [26]: 300 nM
inhibition [27]: Active
Activity [28]: Active
Activity [29]: Non-Toxic
Activity [30]: Non-Toxic
fold change (FC) [31]: 8.8
fold change (FC) [32]: 0.44
fold change (FC) [33]: 0.35
Activity [34]: 11.5%
Activity [35]: Active
IC50 [36]: 100 nM
fold change (FC) [37]: 5.4
